{"source": "patent US5780590A", "about": "“Antithrombotic azacycloalkylalkanoyl peptides and pseudopeptides” (Rhone-Poulenc Rorer Pharmaceuticals Inc., priority 1996, dated 1998)", "key": {"[1]": {"test": "Isothermal microcalorimetry of solid state form conversion", "type": "physicochemical", "conditions": "60° C. (FIG. 8)", "method": "Isothermal microcalorimetry experiments on hygroscopic and non-hygroscopic crystalline forms of N-[N-[N-(4-piperdin-4-yl)butanoyl)-N-ethylglycyl]-(L)-aspartyl]-(L)-β-cyclohexylalanine amide are performed on a Thermometric® Thermal Activity Monitor (TAM). Solid state conversions of the different crystalline forms are studied by exposing the forms to different humidities or solvent vapors at different temperatures. The saturated salt solutions used to obtain different humidities were: KCl (80% RH), NaCl (75% RH), and NaBr (65% RH). Approximately 100 mg quantities of the forms are weighed into a TAM glass ampule and a microhygrostate containing a saturated salt solution (with excess solid) or an organic solvent is placed inside the ampule. The ampule is sealed, equilibrated to the temperature of the experiment, and lowered into the measuring position in the TAM. An identical system containing washed sea sand, in place of the form subject to testing, is placed on the reference side. Output power ([…]) is measured as a function of time (FIGS. 6-8)."}, "[2]": {"test": "Moisture sorption isotherms", "type": "physicochemical", "conditions": "25° C. (FIG. 9)", "method": "Moisture Sorption Isotherms of hygroscopic and non-hygroscopic crystalline forms of N-[N-[N-(4-piperdin-4-yl)butanoyl)-N-ethylglycyl]-(L)-aspartyl]-(L)-β-cyclohexylalanine amide are obtained on a VTI MB300G moisture balance. The experiments are conducted either by subjecting approximately 15 mg of the subject crystalline form to increasing and decreasing steps of % RH and following the weight gain (at each equilibrium step) as a function of % RH (FIG. 9) or by holding the subject crystalline form at constant humidity and following the weight gain as a function of time."}, "[3]": {"system": "ADP-induced platelet aggregation in platelet rich plasma", "test": "Inhibition of ADP-Induced ex-vivo Platelet Aggregation", "type": "in vivo, mongrel dogs", "conditions": "dog, dose 5 mg/kg oral", "description": "The Platelet Aggregation Assay is based on that described in Blood 66 (4), 946-952 (1985). The Fibrinogen-Binding Assay is essentially that of Ruggeri, Z. M., et al., Proc. Natl. Acad. Sci. USA 83, 5708-5712 (1986) and Plow, E. F., et al., Proc. Natl. Acad. Sci., USA 82, 8057-8061 (1985). The Inhibition of ADP-Induced ex-vivo Platelet Aggregation assay is based on that of Zucker, \"Platelet Aggregation Measured by the Photoelectric Method\", Methods in Enzymology 169, 117-133 (1989).\nInhibition of ADP-Induced ex-vivo Platelet Aggregation\nControl blood samples are obtained 5-10 minutes prior to administration of a test compound in mongrel dogs weighing from 10 to 20 Kg. The compound is administered intragasticly, via aqueous gavage, or orally, via gelatin capsule. […]\nThe blood samples are centrifuged at 1000 rpm for 10 minutes to obtain platelet rich plasma (PRP). […] Platelet count in the PRP is determined by using a Coulter Counter (Coulter Electronics, Hialeah, Fla.). […] Platelet aggregation is monitored spectrophotometrically utilizing a light transmission aggregometer (Bio/Data Platelet Aggregation Profiler, Model PAP-4, Bio/Data Corp., Horsham, Pa.). For the testing of a compound, the rate of change (slope) of light transmittance and the maximum light transmittance (maximum aggregation) is recorded in duplicate. […]"}}}
{"smiles": "CCN(CC(=O)N[C@@H](CC(=O)O)C(=O)N[C@@H](CC1CCCCC1)C(N)=O)C(=O)CCCC1CCNCC1", "note": "[hygroscopic form]", "values": [{"measurement": "conversion to non-hygroscopic form at 100% RH", "setting": "[1]", "value": "without the liquification"}, {"measurement": "% weight gain vs. % RH", "setting": "[2]", "value": "picks up more water than the non-hygroscopic form as the RH increases"}]}
{"smiles": "CCN(CC(=O)N[C@@H](CC(=O)O)C(=O)N[C@@H](CC1CCCCC1)C(N)=O)C(=O)CCCC1CCNCC1", "note": "[Example 15]", "values": [{"measurement": "% Inhibition of ex-vivo Platelet Aggregation After Oral Administration, 24 h", "setting": "[3]", "value": 5, "unit": "%"}]}
